# Measurements published in publication PMC7600006, “Dissecting the Cytochrome P450 OleP Substrate Specificity: Evidence for a Preferential Substrate” (Biomolecules, 2020).
# How the values were obtained:
# cytochrome P450 OleP [1] = molecular target: T1, cytochrome P450 OleP (Streptomyces antibioticus, UniProt Q59819); assay: UV-visible equilibrium titration (Type I Soret shift); crystal structure of the ternary complex with L-rhamnose ([…] Å); assay type: binding
# T1 construct: wild type enzyme
# T1 sequence (Q59819 1-407): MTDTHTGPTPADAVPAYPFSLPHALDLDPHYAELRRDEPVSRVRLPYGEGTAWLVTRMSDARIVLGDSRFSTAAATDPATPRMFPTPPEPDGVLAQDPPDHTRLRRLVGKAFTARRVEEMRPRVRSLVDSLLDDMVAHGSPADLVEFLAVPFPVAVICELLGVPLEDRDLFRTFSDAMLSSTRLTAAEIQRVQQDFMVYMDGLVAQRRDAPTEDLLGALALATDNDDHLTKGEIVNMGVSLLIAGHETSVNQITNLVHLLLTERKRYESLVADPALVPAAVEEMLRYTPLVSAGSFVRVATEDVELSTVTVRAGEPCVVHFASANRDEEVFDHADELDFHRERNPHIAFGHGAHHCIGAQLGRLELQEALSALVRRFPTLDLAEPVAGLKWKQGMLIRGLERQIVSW
# cytochrome P450 OleP [2] = molecular target: T1, cytochrome P450 OleP; assay: UV-visible equilibrium titration (Type I Soret shift); crystal structures 6ZHZ, 6ZI2 and 6ZI7; assay type: binding
SMILES,Kd (cytochrome P450 OleP [1]),Kd (cytochrome P450 OleP [2])
"CC[C@H]1OC(=O)[C@H](C)[C@@H](O)[C@H](C)[C@@H](O)[C@@H](C)C[C@@H](C)C(=O)[C@H](C)[C@@H](O)[C@H]1C [6DEB, 6-deoxyerythronolide B]",3.2 ± 0.1 µM,–
"C[C@@H]1[C@@H](O)[C@@H](C)C[C@H](C)C(=O)[C@H](C)[C@@H](O)[C@@H](C)[C@@H](C)OC(=O)[C@H](C)[C@H]1O [DEO, 8.8a-deoxyoleandolide]",–,23 ± 2 µM
